Where “and” joins values, the source holds several entries; their conditions need not be identical. Equal values may be shown once. Entries after “also recorded” stand apart in the source; their conditions may differ.
Tests used:
[1] = tested on: mouse bone marrow derived osteoprogenitor cells; assay: In vitro osteoblast differentiation assay (cellular alkaline phosphatase); type: cell-based; settings: LA number = ng/ml lanthanum; for Effect on osteoblast differentiation, in words: lanthanum (III) ion = 100-15000 ng/ml, 17-estradiol 10^−10 M; for Relative specific activities of intracellular alkaline phosphatase, Mean ± SD / Relative specific activities of intracellular alkaline phosphatase, replicates 1-8 / Relative specific activities of intracellular alkaline phosphatase, replicates 1-4 / Relative specific activities or intracellular alkaline phosphatase, Mean ± SD / Relative specific activities or intracellular alkaline phosphatase, replicates 1-6: relative to mean of baseline group, 8 days; for Relative specific activities of intracellular alkaline phosphatase, Mean ± SD / Relative specific activities of intracellular alkaline phosphatase, replicates 1-8 / Relative specific activities of intracellular alkaline phosphatase, replicates 1-4 / Relative specific activities or intracellular alkaline phosphatase, Mean ± SD / Relative specific activities or intracellular alkaline phosphatase, replicates 1-6 / Combined results on osteoblast differentiation (relative specific ALP activity), Mean ± SD: Control = Baseline+10^−10 M 17-estradiol; for Relative specific activities or intracellular alkaline phosphatase, Mean ± SD / Relative specific activities or intracellular alkaline phosphatase, replicates 1-6: second osteoblast differentiation assay; for Combined results on osteoblast differentiation (relative specific ALP activity), Mean ± SD: tables 8-10 combined, number 18
Excerpt: We have established a culture model in which mouse bone marrow derived osteoprogenitor cells first proliferate and then differentiate to osteoblasts capable of forming mineralized bone nodules (Qu et al. 1998, Qu et al. 1999). We confirmed this by following the expression of several markers of the osteoblastic phenotype and by studying the morphology of cultures at light and electron microscopic level. […] Thus, this culture system fulfills requirements of an in vitro model useful for studying differentiation of osteoprogenitor cells into bone synthesizing osteoblasts. […] Animals were killed by cervical dislocation. Both femora were removed and the soft tissues were detached aseptically. Metaphyses from both ends were cut off and bone marrow cells were collected by flushing the diaphysis with culture medium: phenol red-free-α-modified essential medium (α-MEM (Gibco BRL, Paisley, UK)). […] The cells were cultured for 6 days and half of the media […] days. […] Cells were washed with warm PBS and adherent cells were detached using trypsin-EDTA. […] The test substances were added at the beginning of the secondary culture without estrogen, and every time when the medium was changed. The number of osteoblasts formed was determined by measuring cellular alkaline phosphatase (ALP) activity in the culture. […] Louis, Mo., USA), and overnight freezing. ALP activity was determined colorimetrically using p-nitrophenylphosphate as substrate at pH 9.7 and determining the optical density at 405 nm. In parallel, protein contents of the wells were determined by the BIO-RAD protein assay, and the specific ALP activity is expressed as units/mg protein. […] Osteoblast differentiation was determined by measuring cellular alkaline phosphatase (ALP) activities and total protein amounts from cell lysates. The ALP activities were divided with the corresponding protein amounts to obtain specific activities of ALP. The results are shown as relative specific activities obtained by dividing each individual value with the mean value of the baseline group.

[2] = tested on: mature osteoblasts; assay: In vitro bone formation assay (calcium deposition into bone nodules); type: cell-based, mouse; settings: LA number = ng/ml lanthanum; for Effect on bone formation activity of mature osteoblasts, in words: lanthanum (III) / lanthanum (III) ion = all concentrations tested, 100 to 15,000 ng/ml, 17-estradiol 10^−10M; for Calcium deposition, Mean ± SD / Calcium deposition, replicates 1-6 / Calcium deposition, replicates 1-4 / Calcium deposition, replicates 1-8: calcium released from bone nodules after HCl extraction; for Calcium deposition, Mean ± SD / Calcium deposition, replicates 1-6 / Calcium deposition, replicates 1-4 / Calcium deposition, replicates 1-8 / Combined results on bone formation activity of mature osteoblasts (calcium released), Mean ± SD: Control = Baseline+10^−10M 17β-estradiol; for Combined results on bone formation activity of mature osteoblasts (calcium released), Mean ± SD: tables 13 and 14 combined, number 14
Method: The activity of mature osteoblasts can be determined by quantifying their ability to form mineralized bone matrix. This is done by demineralizing the formed bone matrix, and determining the amount of calcium released. Thus, this culture system fulfills requirements of an in vitro model useful for studying the bone formation activity of mature osteoblasts. […] At the end of the culture, the amount of calcium deposited during the culture period was determined, and the amount of bone formation (calcium deposition) calculated. […] Extracts of 50 μl were complexed with 1 ml determined o-cresol-phthalein-complexon. The colorimetric reaction was determined at 570 nm in a spectrophotometer. Absolute calcium concentrations were determined by comparison with a calibrated standard provided by the vendor. In this study, the effect of lanthanum carbonate on bone formation was tested. […] The amount of bone formation was determined by measuring the amount of calcium deposited into bone nodules formed by mature osteoblasts. The results are shown as the amount of calcium released (mmol/L) from the bone nodules after HCl extraction. The baseline values are too low to show the results using relative amounts as was done in the other assays.

[3] = first osteoblast differentiation assay
[4] = preliminary osteoblast differentiation assay
[5] = preliminary bone formation assay

| SMILES | Effect on osteoblast differentiation, in words [1] | Relative specific activities of intracellular alkaline phosphatase, Mean ± SD [1, 3] | Relative specific activities of intracellular alkaline phosphatase, replicates 1-8 [1, 3] | Relative specific activities of intracellular alkaline phosphatase, Mean ± SD [1, 4] | Relative specific activities of intracellular alkaline phosphatase, replicates 1-4 [1, 4] | Relative specific activities or intracellular alkaline phosphatase, Mean ± SD [1] | Relative specific activities or intracellular alkaline phosphatase, replicates 1-6 [1] | Combined results on osteoblast differentiation (relative specific ALP activity), Mean ± SD [1] | Effect on bone formation activity of mature osteoblasts, in words [2] | Calcium deposition, Mean ± SD ([2]; first bone formation assay) [mmol/L] | Calcium deposition, replicates 1-6 ([2]; first bone formation assay) | Calcium deposition, Mean ± SD [2, 5] [mmol/L] | Calcium deposition, replicates 1-4 [2, 5] | Calcium deposition, Mean ± SD ([2]; second bone formation assay) | Calcium deposition, replicates 1-8 ([2]; second bone formation assay) | Combined results on bone formation activity of mature osteoblasts (calcium released), Mean ± SD [2] [mmol/L] |
| --- | --- | --- | --- | --- | --- | --- | --- | --- | --- | --- | --- | --- | --- | --- | --- | --- |
| O.O.O.O.O=C([O-])[O-].O=C([O-])[O-].O=C([O-])[O-].[La+3].[La+3] [LA 100, lanthanum carbonate tetrahydrate] | activated osteoblast differentiation significantly; also recorded: activate both bone formation and osteoblast differentiation | 1.05 ± 0.17 | 0.95 and 1.04 and 0.98 | 1.15 ± 0.13 | 0.98 and 1.29 and 1.19 and 1.12 | 1.14 ± 0.22 | 0.91 and 0.94 and 1.34 and 1.20 and 1.00 and 1.43 | 1.10 ± 0.18 (*) | activate both bone formation and osteoblast differentiation | 0.11 ± 0.11 | 0.04 mmol/L and 0.17 mmol/L and 0.01 mmol/L and 0.27 mmol/L and 0 mmol/L and 0.14 mmol/L | 0.00 ± 0.00 | 0 mmol/L | 0.08 ± 0.11 mmol/L | 0 mmol/L (4×) and 0.28 mmol/L and 0.14 mmol/L | 0.09 ± 0.10 |
| O.O.O.O.O=C([O-])[O-].O=C([O-])[O-].O=C([O-])[O-].[La+3].[La+3] [LA 500, lanthanum carbonate tetrahydrate] | No significant response; also recorded: do not decrease the formulation of osteoblasts | 0.90 ± 0.14 | 0.95 and 0.96 and 0.62 | 1.01 ± 0.07 | 0.96 and 0.98 and 0.99 and 1.11 | 0.93 ± 0.14 | 0.88 and 0.89 and 1.10 and 1.09 and 0.75 and 0.90 | 0.94 ± 0.13 | stimulate bone formation | 0.77 ± 0.54 | 0.44 mmol/L and 0.15 mmol/L and 1.32 mmol/L and 0.27 mmol/L and 1.31 mmol/L and 1.10 mmol/L | 0.02 ± 0.05 | 0 mmol/L (3×) and 0.09 mmol/L | 0.62 ± 0.61 mmol/L | 0 mmol/L and 0.02 mmol/L and 0.46 mmol/L and 1.17 mmol/L | 0.68 ± 0.56 |
| O.O.O.O.O=C([O-])[O-].O=C([O-])[O-].O=C([O-])[O-].[La+3].[La+3] [LA 1000, lanthanum carbonate tetrahydrate] | No significant response; also recorded: do not decrease the formulation of osteoblasts | 0.94 ± 0.14 | 1.01 and 0.78 and 0.81 | 0.94 ± 0.19 | 0.69 and 1.13 and 0.92 and 1.01 | 0.88 ± 0.21 | 0.73 and 0.71 and 1.19 and 0.81 and 0.72 and 1.09 | 0.92 ± 0.17 | stimulate bone formation | 1.29 ± 0.28 | 0.95 mmol/L and 1.66 mmol/L and 1.47 mmol/L and 1.41 mmol/L and 1.00 mmol/L and 1.25 mmol/L | 0.07 ± 0.05 | 0.10 mmol/L and 0 mmol/L and 0.11 mmol/L and 0.05 mmol/L | 1.14 ± 0.55(* mmol/L | 1.76 mmol/L and 0.02 mmol/L and 1.52 mmol/L | 1.20 ± 0.45 |
| O.O.O.O.O=C([O-])[O-].O=C([O-])[O-].O=C([O-])[O-].[La+3].[La+3] [LA 5000, lanthanum carbonate tetrahydrate] | inhibited | 0.53 ± 0.06(***) | 0.54 and 0.59 and 0.55 | 0.47 ± 0.03(***) | 0.42 and 0.46 and 0.50 and 0.48 | 0.41 ± 0.10(***) | 0.31 and 0.51 (2×) and 0.49 and 0.28 and 0.40 | 0.48 ± 0.09 (***) | best responses | 1.46 ± 0.10 | 1.31 mmol/L and 1.55 mmol/L and 1.56 mmol/L and 1.52 mmol/L and 1.40 mmol/L and 1.39 mmol/L | 1.06 ± 0.66 | 0.59 mmol/L and 1.64 mmol/L and 0.39 mmol/L and 1.62 mmol/L | 1.47 ± 0.20(* mmol/L | 1.08 mmol/L and 1.63 mmol/L and 1.30 mmol/L | 1.47 ± 0.16 |
| O.O.O.O.O=C([O-])[O-].O=C([O-])[O-].O=C([O-])[O-].[La+3].[La+3] [LA 15000, lanthanum carbonate tetrahydrate] | inhibited | 0.40 ± 0.07(***) | 0.39 and 0.35 and 0.43 | 0.50 ± 0.03(***) | 0.51 and 0.49 and 0.47 and 0.54 | 0.28 ± 0.07(***) | 0.27 and 0.13 and 0.33 and 0.32 and 0.29 and 0.31 | 0.38 ± 0.11 (***) | best responses | 1.29 ± 0.21 | 1.46 mmol/L and 1.42 mmol/L and 1.56 mmol/L and 1.11 mmol/L (2×) and 1.08 mmol/L | 0.89 ± 0.66 | 1.48 mmol/L and 0.16 mmol/L and 0.50 mmol/L and 1.41 mmol/L | 1.40 ± 0.21(* mmol/L | 1.62 mmol/L and 1.18 mmol/L and 1.21 mmol/L | 1.35 ± 0.21 |
